Series [1] has as its system intracellular amastigotes of T. cruzi. The experiment in a line: Activity against intracellular amastigotes in infected Vero cells (Dm28c-Luc, 72 h). The format is cell-based, Trypanosoma cruzi. To be noted: for Intracellular Amastigotes SI: CC50 of Vero cells/IC50 of intracellular amastigote; for IC50 / IC90: Trypanosoma cruzi; for IC50: Vero; for IC90: read-out: Trypanocidal Activity Intracellular Amastigotes IC90. The text has this: (§1) T. cruzi Dm28c clone genetically modified to express luciferase, kindly provided by Dr. Cristina Henriques from Oswaldo Cruz Institute–Fiocruz, was used in the drug assays. Trypomastigotes were harvested from T. cruzi-infected Vero cultures supernatants at 4th days post-infection (dpi) and used in the phenotypic screening assay. For intracellular amastigotes assays, Vero cells (2D and 3D cultures) were infected at a ratio of 10:1 parasites/host cells.
The effect of the pyrazole derivatives against intracellular amastigotes was also evaluated after 72 h treatment (37 °C) with compound concentrations ranging from 0.04–100 µM [13]. Parasite viability, measured by luminescent signal, was determined after luciferin (300 µg/mL) addition. IC50 and IC90 values were calculated by linear regression. Selectivity index (SI) was calculated as the ratio of the CC50 to IC50 values. The non-toxic concentration of DMSO (less than 1% v/v) was used in all assays. A minimum of three independent assays was carried out in duplicate.

Series [2] in a line: Cytotoxicity in vitro assay (ATP, CellTiter Glo, 72 h). To be noted: African green monkey, Vero cells. Type of series: cell-based. As for the experimental part:
Vero cells, obtained from the Rio de Janeiro Cell Bank (BCRJ code 0245), were cultured in RPMI-1640 supplemented with 10% fetal bovine serum (FBS) and 1 mM L-glutamine, as previously described. Vero cells were used for drug screening assays and to obtain trypomastigote forms of T. cruzi.
Vero cells were used as a cellular model to analyze the toxic effect of pyrazole derivatives, series 1(a–l), 2(a–l), 3(a–n), 4(a–c), and 5(a–c), and Benznidazole (Bz) on mammalian cells. Briefly, the cells, plated on 96-well white opaque microplate (1.5 × 10^4 cells/well), were treated for 72 h at 37 °C with a wide range concentration (500–1.95 µM) of the pyrazole derivatives. The cell viability was determined by measuring ATP levels using the CellTiter Glo Kit (Promega Corporation, Madison, WI, EUA) followed by reading the luminescent signal on the Glomax-Multi Detection plate reader (Promega Corporation, Madison, WI, EUA)). All treatments and controls were performed at a low concentration of DMSO (≤1%). The 50% cytotoxic concentration values (CC50; the concentration of the compound that reduces 50% of the cell viability) were estimated by linear regression analysis. Three independent assays were performed in duplicate.

The test system of series [3] is trypomastigote forms of T. cruzi. Briefly: Phenotypic screening against T. cruzi trypomastigotes (Dm28c-Luc, luciferase viability, 24 h). Particulars: for Trypomastigotes SI: CC50 of Vero cells/IC50 of trypomastigote; for IC50 / IC90: Trypanosoma cruzi, Dm28c-Luc, 24 h; for IC50: read-out: Trypanocidal Activity Trypomastigotes IC50; for IC90: read-out: Trypanocidal Activity Trypomastigotes IC90. The format is cell-based, Trypanosoma cruzi.
Description: as §1
The phenotypic compound screening was performed using transgenic T. cruzi parasites expressing the firefly luciferase (Dm28c-Luc). Trypomastigotes (1 × 10^6 parasites/well) were treated for 24 h at 37 °C with the pyrazole derivatives and Bz (0.04–100 μM), followed by incubation with luciferin substrate (300 µg/mL) to determine parasite viability through luciferase activity. The concentration that reduces the number of viable parasites by 50% (IC50) or 90% (IC90) was calculated by linear regression. The luminescent signal was read on a Glomax-Multi Detection plate reader (Promega Corporation, Madison, WI, EUA)). At least three independent assays were performed in duplicate.

[4] abbreviates: 72 h, Vero cells infected with Dm28c-Luc, 72 h, read-out: Trypanocidal Activity Intracellular Amastigotes IC50.
Setting [5] is: negative log of the IC50 value in molar, read-out: Intracellular Amastigotes pIC50 (converted).
The mark [6] stands for this setting: Vero cells infected with Dm28c-Luc, 72 h.

SMILES strings stand for the structures. Where two headings read alike, the source gives them in different places.

Turning to `Clc1ccc(-n2cc(C3=NCCN3)cn2)cc1Cl` [Compound 3e, 1-(3,4-dichlorophenyl)-4-(4,5-dihydro-1H-imidazol-2-yl)-1H-pyrazole], the melting point lay within 185 to 186 °C. The “Intracellular Amastigotes SI” value in series [1] came to 6.26. The IC50 in series [1] (setting [4]) amounted to 76.5 ± 8.79 µM. Also, the IC50 in series [1] (setting [5]) is 75.9 µM. The IC90 in series [1] (setting [6]) was > 100 µM. In addition, half-maximal cytotoxicity in series [2] (CC50 at 72 h) was put at 480 ± 21.7 µM. In series [3], the “Trypomastigotes SI” value was 7.39, the IC50 turned out to be 64.9 ± 2.85 µM and the concentration for an effect of 90% (IC90) was 93.74 ± 0.73 µM.
Compound `Fc1cccc(-n2cc(C3=NCCN3)cn2)c1` [Compound 3i, 4-(4,5-dihydro-1H-imidazol-2-yl)-1-(3-fluorophenyl)-1H-pyrazole] registered a melting point of 164 to 167 °C. Besides, the IC50 in series [1] (setting [4]) was determined as 64.1 ± 7.09 µM. The IC50 in series [1] (setting [5]) is 64.6 µM. The IC90 in series [1] (setting [6]) was > 100 µM. In series [2], the CC50 at 72 h was > 500 µM. Moreover, in series [3], the IC50 was > 100 µM.
The compound `CC1CN=C(c2cnn(-c3cccc(Cl)c3)c2N)N1` (stereo not shown) [Compound 5a, 5-amino-1-(3-chlorophenyl)-4-(4-(5)-methyl-4,5-dihydro-1H-imidazol-2-yl)-1H-pyrazole] registered a melting point of 169 to 172 °C. The IC50 in series [1] (setting [4]) is > 100 µM. The IC50 in series [1] (setting [5]) was > 100 µM. Further, the IC90 in series [1] (setting [6]) was > 100 µM. Besides, the half-maximal cytotoxic concentration (CC50) at 72 h in series [2] was > 500 µM. Moreover, in series [3], the IC50 is > 100 µM and the IC90 was > 100 µM.
`Clc1cccc(-n2cc(C3=NCCN3)cn2)c1` [Compound 3b, 1-(3-chlorophenyl)-4-(4,5-dihydro-1H-imidazol-2-yl)-1H-pyrazole] came in with a melting point of 120 to 124 °C. The “fold drop in activity on moving Cl or Br to the meta position” value in series [1] (3b compared to 3g, 3k compared to 3j) is reported as “five”. Further, the “Intracellular Amastigotes SI” value in series [1] is on record as 9.48. Also, the IC50 in series [1] (setting [4]) was 28.2 ± 1.81 µM. Also, the IC50 in series [1] (setting [5]) is 28.2 µM. Besides, the IC90 in series [1] (setting [6]) worked out at 86.6 ± 5.55 µM. The CC50 at 72 h in series [2] was found to be 267 ± 28.1 µM. Moreover, the IC50 in series [3] is > 100 µM.
`Cc1nn(-c2cccc(Cl)c2)c(N)c1C1=NCCN1` [Compound 4a, 5-amino-1-(3-chlorophenyl)-3-methyl-4-(4,5-dihydro-1H-imidazol-2-yl)-1H-pyrazole] had a melting point of 116 to 120 °C. In addition, in series [1] (setting [4]), the IC50 is > 100 µM. The IC50 in series [1] (setting [5]) was > 100 µM. Further, the concentration for an effect of 90% (IC90) in series [1] (setting [6]) was > 100 µM. Also, the CC50 at 72 h in series [2] is > 500 µM. In series [3], the IC50 is > 100 µM and the IC90 is > 100 µM.
In turn, `Cc1nn(-c2ccc(Cl)c(Cl)c2)c(N)c1C1=NCCN1` [Compound 4c, 5-amino-1-(3,4-dichlorophenyl)-3-methyl-4-(4,5-dihydro-1H-imidazol-2-yl)-1H-pyrazole] yielded a melting point of 221 to 224 °C. In series [1], the “Intracellular Amastigotes SI” value came to 3.78. In series [1] (setting [4]), the IC50 is 93.8 ± 16.4 µM. Besides, the IC50 in series [1] (setting [5]) was 93.3 µM. In addition, the 90% effect concentration (IC90) in series [1] (setting [6]) was > 100 µM. Besides, the 50% cytotoxic concentration (CC50) at 72 h in series [2] came out at 355 ± 17.7 µM. For the same compound, in series [3], the IC50 is > 100 µM and the concentration for an effect of 90% (IC90) was > 100 µM.
In the case of `CC1CN=C(c2cnn(-c3ccc(Cl)c(Cl)c3)c2N)N1` (stereo not shown) [Compound 5c, 5-amino-1-(3,4-dichlorophenyl)-4-(-4(5)-methyl-4,5-dihydro-1H-imidazol-2-yl)-1H-pyrazole], the melting point was 191 to 193 °C. For the same compound, in series [1] (setting [4]), the IC50 came to 34.3 ± 4.24 µM. For the same compound, the IC50 in series [1] (setting [5]) is 34.7 µM. In series [1] (setting [6]), the IC90 is > 100 µM. This compound also showed a CC50 at 72 h in series [2] of 343 ± 37 µM. In series [3], the IC50 is > 100 µM and the 90% effect concentration (IC90) was > 100 µM.
As for `Clc1ccc(-n2cc(C3=NCCN3)cn2)c(Cl)c1` [Compound 3c, 1-(2,4-dichlorophenyl)-4-(4,5-dihydro-1H-imidazol-2-yl)-1H-pyrazole], the melting point was in the range of 110 to 111 °C. The “Intracellular Amastigotes SI” value in series [1] came to 7.21. For the same compound, the IC50 in series [1] (setting [4]) stood at 56.6 ± 2.52 µM. Further, the IC50 in series [1] (setting [5]) is 56.2 µM. Also, the 90% effect concentration (IC90) in series [1] (setting [6]) was 94.6 ± 3.61 µM. For the same compound, the 50% cytotoxic concentration (CC50) at 72 h in series [2] is 409 ± 16.2 µM. For the same compound, the IC50 in series [3] was > 100 µM.
On to `Clc1cc(Cl)cc(-n2cc(C3=NCCN3)cn2)c1` [Compound 3d, 1-(3,5-dichlorophenyl)-4-(4,5-dihydro-1H-imidazol-2-yl)-1H-pyrazole], for which the melting point was 83 to 84 °C. In series [1], the “Intracellular Amastigotes SI” value stood at 6.99. Also, the IC50 in series [1] (setting [4]) was 54.9 ± 7.12 µM. Moreover, the IC50 in series [1] (setting [5]) is 55 µM. Moreover, the IC90 in series [1] (setting [6]) was > 100 µM. This compound also registered a CC50 at 72 h in series [2] of 384 ± 23 µM. In addition, in series [3], the “Trypomastigotes SI” value is 5.78, the IC50 amounted to 66.3 ± 5.53 µM and the IC90 worked out at 93.5 ± 1.56 µM.
For the compound `Cc1cc(Cl)ccc1-n1cc(C2=NCCN2)cn1` [Compound 3n, 1-(4-chloro-2-methylphenyl)-4-(4,5-dihydro-1H-imidazol-2-yl)-1H-pyrazole], the melting point was in the range of 174 to 176 °C. For the same compound, the “Intracellular Amastigotes SI” value in series [1] worked out at 13.86. Besides, in series [1] (setting [4]), the IC50 was 24.7 ± 3.42 µM. The IC50 in series [1] (setting [5]) was 24.5 µM. The IC90 in series [1] (setting [6]) is 85.7 ± 5.03 µM. The compound also returned a CC50 at 72 h in series [2] of 342 ± 30 µM. The IC50 in series [3] is > 100 µM.
For `c1ccc(-n2cc(C3=NCCN3)cn2)cc1` [Compound 3a, 4-(4,5-dihydro-1H-imidazol-2-yl)-1-phenyl-1H-pyrazole], the melting point fell in the range of 149 to 150 °C. In series [1], the “Intracellular Amastigotes SI” value was >5.44. Moreover, in series [1] (setting [4]), the IC50 is 91.8 ± 2.03 µM. In series [1] (setting [5]), the IC50 was 93.3 µM. In addition, the 90% effect concentration (IC90) in series [1] (setting [6]) is > 100 µM. The CC50 at 72 h in series [2] is > 500 µM. Moreover, the IC50 in series [3] was > 100 µM.
`Cc1nn(-c2cc(Cl)cc(Cl)c2)c(N)c1C1=NCCN1` [Compound 4b, 5-amino-1-(3,5-dichlorophenyl)-3-methyl-4-(4,5-dihydro-1H-imidazol-2-yl)-1H-pyrazole] had a melting point of 193 to 194 °C. Also, in series [1], the “Intracellular Amastigotes SI” value is given as >5.51. Moreover, the IC50 in series [1] (setting [4]) was determined as 90.7 ± 13.2 µM. Besides, the IC50 in series [1] (setting [5]) was 91.2 µM. In addition, in series [1] (setting [6]), the IC90 is > 100 µM. In series [2], the 50% cytotoxic concentration (CC50) at 72 h is > 500 µM. For the same compound, in series [3], the IC50 is > 100 µM and the IC90 was > 100 µM.
In turn, `Clc1cccc(Cl)c1-n1cc(C2=NCCN2)cn1` [Compound 3f, 1-(2,6-dichlorophenyl)-4-(4,5-dihydro-1H-imidazol-2-yl)-1H-pyrazole] gave a melting point of 221 to 223 °C. Also, the “Intracellular Amastigotes SI” value in series [1] is >6. Moreover, in series [1] (setting [4]), the IC50 worked out at 82 ± 2.52 µM. Besides, in series [1] (setting [5]), the IC50 is 81.3 µM. Moreover, the concentration for an effect of 90% (IC90) in series [1] (setting [6]) was > 100 µM. The cytotoxic concentration (CC50) at 72 h in series [2] was > 500 µM. Moreover, the IC50 in series [3] is > 100 µM.

For the origin of these results see publication PMC8587750, “Structural Optimization and Biological Activity of Pyrazole Derivatives: Virtual Computational Analysis, Recovery Assay and 3D Culture Model as Potential Predictive Tools of Effectiveness against Trypanosoma cruzi” (Molecules, 2021).
